Where a name gives a salt, the structure may show the parent alone.
System: HMOX1
Experiment: HMOX1 Protein Assay (immunostaining of HO-1 in NHLF cells, GE InCell 1000)
Assay type: cell-based
Conditions: Homo sapiens, fold change above DMSO treated cells, 16 h; for fold induction at 5 µM: 5 μM compound; for fold induction at 3 µM: 3 μM compound (asterisk)
Outline: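 NHLF cells seeded overnight in FGM-2, then exposed to compound or DMSO vehicle for 16 h, fixed, and immunostained for HO-1 with Hoechst nuclear counterstain; imaged on InCell 1000. Values are fold change over DMSO-treated cells, generally at 5 μM (0.8% DMSO), with asterisked entries at 3 μM.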

SMILES: Cn1c(Nc2nc3ccc(Cl)cc3s2)nc2cc(C(=O)NCCOCCCF)ccc21 [Example 249, 2-(6-Chloro-benzothiazol-2-ylamino)-1-methyl-1H-benzoimidazole-5-carboxylic acid [2-(3-fluoro-propoxy)-ethyl]-amide]
- fold induction at 5 µM: 31.2

SMILES: COCCNC(=O)c1ccc2c(c1)nc(Nc1nc3ccc(C)cc3s1)n2C [Example 129, 2-(6-Methyl-benzothiazol-2-ylamino)-1-methyl-1H-benzimidazole-5-carboxylic acid (2-methoxy-ethyl)-amide]
- fold induction at 5 µM: 31

SMILES: CC(C)c1ccc2nc(Nc3nc4cc(C(=O)NCC(=O)N(C)C)ccc4n3C)sc2c1 [Example 365, 2-(6-Isopropyl-benzothiazol-2-ylamino)-1-methyl-1H-benzoimidazole-5-carboxylic acid dimethylcarbamoylmethyl-amide]
- fold induction at 3 µM: 20.1

SMILES: Cn1c(Nc2nc3ccc(OC(F)(F)F)cc3s2)nc2cc(C(=O)NCC(=O)N3CCC(O)CC3)ccc21 [Example 435, 1-Methyl-2-(6-trifluoromethoxy-benzothiazol-2-ylamino)-1H-benzoimidazole-5-carboxylic acid [2-(4-hydroxy-piperidin-1-yl)-2-oxo-ethyl]-amide]
- fold induction at 5 µM: 30.2

SMILES: C[C@@H](O)CN1CC[C@@H](NC(=O)c2ccc3c(c2)nc(Nc2nc4ccc(C(F)(F)F)cc4s2)n3C)C1 [Example 297, 1-Methyl-2-(6-trifluoromethyl-benzothiazol-2-ylamino)-1H-benzoimidazole-5-carboxylic acid [(R)-1-((R)-2-hydroxy-propyl)-pyrrolidin-3-yl]-amide]
- fold induction at 3 µM: 24.4

SMILES: CC(O)C(=O)N1CC[C@@H](NC(=O)c2ccc3c(c2)nc(Nc2nc4ccc(Cl)cc4s2)n3C)C1 (stereo in doubt) [Example 295, 2-(6-Chloro-benzothiazol-2-ylamino)-1-methyl-1H-benzoimidazole-5-carboxylic acid [(R)-1-((R)-2-hydroxy-propionyl)-pyrrolidin-3-yl]-amide]
- fold induction at 3 µM: 29

SMILES: CCCNC(=O)c1ccc2c(c1)nc(Nc1nc3ccc(OC(F)(F)F)cc3s1)n2C [Example 12, 1-Methyl-2-(6-trifluoromethoxy-benzothiazol-2-ylamino)-1H-benzoimidazole-5-carboxylic acid propylamide]
- fold induction at 5 µM: 16.2

SMILES: C[C@@H](O)CNC(=O)c1ccc2c(c1)nc(Nc1nc3ccc(C(F)(F)F)cc3s1)n2C [Example 205, 1-Methyl-2-(6-trifluoromethyl-benzothiazol-2-ylamino)-1H-benzoimidazole-5-carboxylic acid ((R)-2-hydroxy-propyl)-amide]
- fold induction at 3 µM: 33.1

SMILES: Cn1c(Nc2nc3ccc(C(F)(F)F)cc3s2)nc2cc(C(=O)NCC(=O)N3CC[C@H](O)C3)ccc21 [Example 403, 1-Methyl-2-(6-trifluoromethyl-benzothiazol-2-ylamino)-1H-benzoimidazole-5-carboxylic acid [2-((S)-3-hydroxy-pyrrolidin-1-yl)-2-oxo-ethyl]-amide]
- fold induction at 3 µM: 24.8

SMILES: COC(C)(C)CNC(=O)c1ccc2c(c1)nc(Nc1nc3ccc(C(F)(F)F)cc3s1)n2C [Example 208, 1-Methyl-2-(6-trifluoromethyl-benzothiazol-2-ylamino)-1H-benzoimidazole-5-carboxylic acid (2-methoxy-2-methyl-propyl)-amide]
- fold induction at 3 µM: 26.5

SMILES: Cn1c(Nc2nc3ccc(OC(F)(F)F)cc3s2)nc2cc(C#N)ccc21 [Example 194, 1-Methyl-2-(6-trifluoromethoxy-benzothiazol-2-ylamino)-1H-benzoimidazole-5-carbonitrile]
- fold induction at 5 µM: 6

SMILES: CNC(=O)c1ccc2c(c1)nc(Nc1nc3ccc(OC(F)(F)F)cc3s1)n2C(C)C [Example 160, 1-Isopropyl-2-(6-trifluoromethoxy-benzothiazol-2-ylamino)-1H-benzoimidazole-5-carboxylic acid methylamide]
- fold induction at 5 µM: 22.9

SMILES: Cn1c(Nc2nc3ccc(OC(F)(F)F)cc3s2)nc2cc(C(=O)NCCN3CCC(O)CC3)ccc21 [Example 192, 1-Methyl-2-(6-trifluoromethoxy-benzothiazol-2-ylamino)-1H-benzoimidazole-5-carboxylic acid [2-(4-hydroxy-piperidin-1-yl)-ethyl]-amide]
- fold induction at 5 µM: 28.8

SMILES: Cn1c(Nc2nc3ccc(C(F)(F)F)cc3s2)nc2cc(C(=O)NCC(=O)N3CCOCC3)ccc21 [Example 422, 1-Methyl-2-(6-trifluoromethyl-benzothiazol-2-ylamino)-1H-benzoimidazole-5-carboxylic acid (2-morpholin-4-yl-2-oxo-ethyl)-amide]
- fold induction at 3 µM: 25

SMILES: CC(=O)NCCOCCNC(=O)c1ccc2c(c1)nc(Nc1nc3ccc(OC(F)(F)F)cc3s1)n2C [Example 275, 1-Methyl-2-(6-trifluoromethoxy-benzothiazol-2-ylamino)-1H-benzoimidazole-5-carboxylic acid [2-(2-acetylamino-ethoxy)-ethyl]-amide]
- fold induction at 5 µM: 77.4

SMILES: Cn1c(Nc2nc3ccc(OC(F)(F)F)cc3s2)nc2cc(C(=O)NCC(=O)N3CCC[C@H]3CO)ccc21 [Example 406, 1-Methyl-2-(6-trifluoromethoxy-benzothiazol-2-ylamino)-1H-benzoimidazole-5-carboxylic acid [2-((S)-2-hydroxymethyl-pyrrolidin-1-yl)-2-oxo-ethyl]-amide]
- fold induction at 5 µM: 31

SMILES: Cn1c(Nc2nc3ccc(OC(F)(F)F)cc3s2)nc2cc(C(=O)NCC(=O)O)ccc21 [Example 83, {[1-Methyl-2-(6-trifluoromethoxy-benzothiazol-2-ylamino)-1H-benzoimidazole-5-carbonyl]-amino}-acetic acid]
- fold induction at 5 µM: 1.25

SMILES: C[C@@H](NC(=O)c1ccc2c(c1)nc(Nc1nc3ccc(Cl)cc3s1)n2C)C(=O)N1CCN(C)CC1 [Example 469, 2-(6-Chloro-benzothiazol-2-ylamino)-1-methyl-1H-benzoimidazole-5-carboxylic acid [(R)-1-methyl-2-(4-methyl-piperazin-1-yl)-2-oxo-ethyl]-amide]
- fold induction at 3 µM: 26.1

SMILES: CC(O)CCNC(=O)c1ccc2c(c1)nc(Nc1nc3ccc(Cl)cc3s1)n2C (stereo not drawn) [Example 215, 2-(6-Chloro-benzothiazol-2-ylamino)-1-methyl-1H-benzoimidazole-5-carboxylic acid (3-hydroxy-butyl)-amide]
- fold induction at 3 µM: 16

SMILES: Cn1c(Nc2nc3ccc(Cl)cc3s2)nc2cc(C(=O)N[C@@H]3CCNC3)ccc21 [Example 290, 2-(6-Chloro-benzothiazol-2-ylamino)-1-methyl-1H-benzoimidazole-5-carboxylic acid (R)-pyrrolidin-3-ylamide hydrochloride]
- fold induction at 5 µM: 22.5

SMILES: COc1cc2c(cc1C(=O)O)nc(Nc1nc3ccc(OC(F)(F)F)cc3s1)n2C [Example 62, 6-Methoxy-1-methyl-2-(6-trifluoromethoxy-benzothiazol-2-ylamino)-1H-benzoimidazole-5-carboxylic acid]
- fold induction at 5 µM: 20.3

SMILES: Cn1c(Nc2nc3ccc(OC(F)(F)F)cc3s2)nc2cc(C(=O)NCCOCC(N)=O)ccc21 [Example 267, 1-Methyl-2-(6-trifluoromethoxy-benzothiazol-2-ylamino)-1H-benzoimidazole-5-carboxylic acid (2-carbamoylmethoxy-ethyl)-amide]
- fold induction at 5 µM: 58.8

SMILES: COCCn1c(Nc2nc3ccc(Cl)cc3s2)nc2cc(C(=O)NCC(=O)N3CC[C@@H](O)C3)ccc21 [Example 404, 2-(6-Chloro-benzothiazol-2-ylamino)-1-(2-methoxy-ethyl)-1H-benzoimidazole-5-carboxylic acid [2-((R)-3-hydroxy-pyrrolidin-1-yl)-2-oxo-ethyl]-amide]
- fold induction at 5 µM: 26.1

SMILES: Cn1c(Nc2nc3ccc(Cl)cc3s2)nc2cc(C(=O)NCC(=O)N3CCOCC3)ccc21 [Example 421, 2-(6-Chloro-benzothiazol-2-ylamino)-1-methyl-1H-benzoimidazole-5-carboxylic acid (2-morpholin-4-yl-2-oxo-ethyl)-amide]
- fold induction at 5 µM: 32.2

SMILES: CN1CCC[C@@H](NC(=O)CNC(=O)c2ccc3c(c2)nc(Nc2nc4ccc(Cl)cc4s2)n3C)C1 [Example 388, 2-(6-Chloro-benzothiazol-2-ylamino)-1-methyl-1H-benzoimidazole-5-carboxylic acid [((R)-1-methyl-piperidin-3-ylcarbamoyl)-methyl]-amide]
- fold induction at 5 µM: 22

SMILES: CN(C)CC(=O)N1CCC(NC(=O)c2ccc3c(c2)nc(Nc2nc4ccc(Cl)cc4s2)n3C)CC1 [Example 313, 2-(6-Chloro-benzothiazol-2-ylamino)-1-methyl-1H-benzoimidazole-5-carboxylic acid [1-(2-dimethylamino-acetyl)-piperidin-4-yl]-amide]
- fold induction at 5 µM: 22.9

SMILES: CN1CCN(C(=O)CNC(=O)c2ccc3c(c2)nc(Nc2nc4ccc(Cl)cc4s2)n3C)CC1 [Example 426, 2-(6-Chloro-benzothiazol-2-ylamino)-1-methyl-1H-benzoimidazole-5-carboxylic acid [2-(4-methyl-piperazin-1-yl)-2-oxo-ethyl]-amide]
- fold induction at 5 µM: 25.1

SMILES: Cn1c(Nc2nc3ccc(OC(F)(F)F)cc3s2)nc2cc(C(=O)NCC(=O)N3CCN(C(=O)OC(C)(C)C)CC3)ccc21 [Example 142, 4-(2-{[1-Methyl-2-(6-trifluoromethoxy-benzothiazol-2-ylamino)-1H-benzimidazole-5-carbonyl]-amino}-acetyl)-piperazine-1-carboxylic acid tert-butyl ester]
- fold induction at 5 µM: 15.2

SMILES: Cn1c(Nc2nc3ccc(OC(F)(F)F)cc3s2)nc2cc(C(=O)NCC(=O)N3CCCC(CO)C3)ccc21 (stereo not drawn) [Example 440, 1-Methyl-2-(6-trifluoromethoxy-benzothiazol-2-ylamino)-1H-benzoimidazole-5-carboxylic acid [2-(3-hydroxymethyl-piperidin-1-yl)-2-oxo-ethyl]-amide]
- fold induction at 5 µM: 28.2

SMILES: Cn1c(Nc2nc3ccc(Cl)cc3s2)nc2cc(C(=O)NCCOCCO)ccc21 [Example 235, 2-(6-Chloro-benzothiazol-2-ylamino)-1-methyl-1H-benzoimidazole-5-carboxylic acid [2-(2-hydroxy-ethoxy)-ethyl]-amide]
- fold induction at 5 µM: 37.7

Reference: patent US8759535B2, “Substituted fused imidazole derivatives, pharmaceutical compositions, and methods of use thereof” (High Point Pharmaceuticals, LLC, priority 2010, dated 2014)
